Data on 18 molecules can be found in paper PMC5936786, “Discovery of Natural Products as Novel and Potent FXR Antagonists by Virtual Screening” (Frontiers in Chemistry, 2018).

SMILES strings stand for the structures. “Also recorded” adds a separate entry of the source. Where two headings read alike, the source gives them in different places.

Test [1] deals with T1, hFXR-LBD (interaction with coactivator SRC-1) (Homo sapiens, UniProt Q96RI1).
T1 sequence (Q96RI1 200-472 isoform Q96RI1-2): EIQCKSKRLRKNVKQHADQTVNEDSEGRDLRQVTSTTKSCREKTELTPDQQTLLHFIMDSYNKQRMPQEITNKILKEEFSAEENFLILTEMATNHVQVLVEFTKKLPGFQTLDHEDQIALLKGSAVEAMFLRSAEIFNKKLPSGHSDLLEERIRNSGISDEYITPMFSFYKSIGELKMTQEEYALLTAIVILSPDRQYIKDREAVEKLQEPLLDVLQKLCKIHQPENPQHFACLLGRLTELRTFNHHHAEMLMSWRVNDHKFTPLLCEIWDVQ
Briefly: Y2H antagonist assay: inhibition of CDCA-induced SRC-1 recruitment to FXR-LBD (α-galactosidase readout). As to conditions: for antagonistic activity against FXR (in words): coactivator recruitment assay; for inhibition at 25 µM: read-out: Inhibition rate % (25 μM), 25 μM compound plus 10 μM CDCA, 24 h, average of triplicate.
Protocol: We performed Y2H assay to determine the agonistic or antagonistic activities of the compounds. […] The quantitative α-galactosidase activity assays were carried out by using PNP-α-Gal as the substrate according to the Clontech manual. Each experiment was repeated three times independently.
• Vortex the overnight culture tube for 0.5–1 min to disperse cell clumps and then each sample needs 200 μL to record the exact OD600. • Centrifuge the tube at 14,000 rpm (10,000 × g) for 30 s. Incubate 16 μL cell culture medium supernatant with 48 μL PNP-α-Gal at 30°C for 60 min. Be sure to cover microtiter plates with a lid or parafilm to prevent evaporation. • Terminate the reaction by adding 136 μL of 1 μM sodium carbonate. Record the optical density of each sample at 410 nm.
The α-galactosidase activity was calculated according to the following formula:
α−galactosidase activity[milliunits/(mL×cell)]​ ​​​=OD410×Vf×1000/(ε×b)×t×Vi×OD600
The agonistic activation and inhibition rates (%) were calculated as follows:

For the next test, the system named is estrogen receptor (ER). As to conditions: cited from earlier work; for agonistic profiles against ER (in words): ref Cao et al., 2013.
Test [2] has as its target T2, hFXR-LBD (interaction with coactivator SRC-1) (Homo sapiens, UniProt Q96RI1).
T2 construct: human FXRα-LBD (200-473 AA) was sub-cloned into vector pGBKT-7; expressed in transfected cells; host or cells: Saccharomyces cerevisiae strain AH109 (Clontech), co-transformed with pGBKT7-FXR LBD and pGADT7-SRC-1
T2 sequence (Q96RI1 214-486): T1 sequence (Q96RI1 200-472 isoform Q96RI1-2)
Briefly: Y2H agonist assay: SRC-1 recruitment to FXR-LBD (α-galactosidase readout). To be noted: GAtreated/GADMSO (DMSO = 1.00), average of triplicate. The test is classed as cell-based. From the text: Each experiment was repeated three times independently.
agonistic activation=GAtreated/GADMSOinhibition rate(%)=GACDCA−GAtreated/GACDCA−GADMSO
where GA indicates α-galactosidase activity.

For test [3], the system named is FXR. To be noted: cited from earlier work.
Test [4] deals with FXR. As to conditions: FXR antagonist, cited from earlier work.
Test [5] deals with FXR. To be noted: FXR antagonist, cited from earlier work. This is another data set of the same source.
Test [6] relates to FXR. Set-up: method as in Dussault et al., 2003. As to conditions: FXR antagonist; ref Dussault et al., 2003; cited from earlier work.
For test [7], the system named is FXR. Set-up: method as in Xu et al., 2015. To be noted: FXR antagonist; ref Xu et al., 2015; cited from earlier work.

As to `C/C(=C/C(=O)C[C@@H](C)[C@]1(C)CC[C@@]2(C)C3=CCC4C(C)(C)[C@H](O)CC[C@]4(C)[C@@H]3CC=C21)C(=O)O` (stereo partly drawn) [Compound 1a, Abiesatrine B], in test [1], the IC50 amounted to 13.5 µM, the “antagonistic activity against FXR (in words)” value is “moderate antagonistic activity” and the inhibition at 25 µM was above 50%. In addition, the “agonistic effect against estrogen receptor (ER) (in words)” value in the test with estrogen receptor (ER) (reported in a previous study, no reference given) is “moderate agonistic effect”. Moreover, the “Agonistic activation (25 μM)” value in test [2] came out at 1.09.

As for `C/C(=C/C(=O)C[C@@H](C)[C@H]1CC[C@@]2(C)C3=CCC4C(C)(C)C(=O)CC[C@]4(C)C3CC[C@]12C)C(=O)O` (stereo partly drawn) [Compound 1b, (24Z)-3,23-Dioxo-9βH-lanosta-7,24-dien-27-oic acid], in test [1], the IC50 was above 25 µM, the “antagonistic activity against FXR (in words)” value was “no detectable antagonistic activity” and the inhibition at 25 µM came to 22.7%. In addition, the “Agonistic activation (25 μM)” value in test [2] was 1.12.

For `C/C(=C\CC[C@@H](C)[C@H]1CC[C@@]2(C)C3=CCC4C(C)(C)C(=O)CC[C@]4(C)C3CC[C@]12C)C(=O)O` (stereo partly drawn) [Compound 1c, Abiesatrine D], in test [1], the IC50 was above 25 µM, the “antagonistic activity against FXR (in words)” value is reported as “no detectable antagonistic activity” and the inhibition at 25 µM was 12.8%. Also, the “Agonistic activation (25 μM)” value in test [2] is on record as 0.93.

Turning to `CC(C)(O)c1ccc2c(c1)C(=O)CC1[C@](C)(C(=O)O)CCC[C@]21C` (stereo partly drawn) [Compound 2a, 15-Hydroxy-7-oxo-8,11,13-abietatrien-18-oic acid], in test [1], 1.29 µM corresponded to half-maximal inhibition (IC50). The “fold stronger antagonistic activity compared with compound 1a” value in test [1] (vs compound 1a) came out at 10 fold. Besides, in test [2], the “Agonistic activation (25 μM)” value came to 1.05.

As for `CC(=O)c1ccc2c(c1)C(=O)CC1[C@](C)(C(=O)O)CCC[C@]21C` (stereo partly drawn) [Compound 2b, 17-Nor-7,15-dion-8,11,13-abietatrien-18-oic acid], in test [1], the IC50 is above 25 µM, the “antagonistic activity against FXR (in words)” value is “no observed activity” and the inhibition at 25 µM was determined as 10.1%. The “Agonistic activation (25 μM)” value in test [2] is 0.90.

With `O=C(CCCCc1ccccc1)c1ccc(O)cc1` [Compound 3a, Daphneone], in test [1], the IC50 came out at 1.79 µM and the “fold higher antagonistic activity against FXR compared to guggulsterone” value amounted to 3 fold. For the same molecule, in test [2], the “Agonistic activation (25 μM)” value amounted to 1.03.

For the molecule `O=C(CC(O)CCc1ccccc1)c1ccc(O)cc1` (stereo not drawn) [Compound 3b, Daphneolon], in test [1], the IC50 was above 25 µM and the inhibition at 25 µM stood at 41.4%. Further, the “Agonistic activation (25 μM)” value in test [2] stood at 0.76.

As to `O=C(/C=C/CCc1ccccc1)c1ccc(O)cc1` [Compound 3c, Daphnenone], in test [1], the IC50 was determined as 5.46 µM and the inhibition at 25 µM was above 50%. Further, in test [2], the “Agonistic activation (25 μM)” value was found to be 1.29.

As to `O=C(O)C=Cc1ccc(O)cc1` [Compound 3d, P-coumaric acid], in test [1], the IC50 amounted to 14.1 µM, the “antagonistic activity against FXR (in words)” value is recorded as “moderate antagonistic activities; also recorded: moderate antagonistic effects” and the inhibition at 25 µM came to 52.8%. The “agonistic profiles against ER (in words)” value with estrogen receptor (ER) is “agonistic profiles”. In test [2], the “Agonistic activation (25 μM)” value is recorded as 1.08.

In the case of `CCOC(=O)c1ccc(O)cc1` [Compound 3e, Ethylparaben], in test [1], the IC50 amounted to 19.3 µM, the “antagonistic activity against FXR (in words)” value is listed as “moderate antagonistic activities; also recorded: moderate antagonistic effects” and the inhibition at 25 µM was 60.1%. In addition, the “agonistic profiles against ER (in words)” value with estrogen receptor (ER) is given as “agonistic profiles”. In addition, in test [2], the “Agonistic activation (25 μM)” value is given as 0.93.

On to `CC[C@H]1[C@@H](O)[C@@H]2[C@H](CC[C@]3(C)[C@@H]([C@H](C)CCC(=O)O)CC[C@@H]23)[C@@]2(C)CC[C@@H](O)C[C@@H]12` [Compound 6-ECDCA, 6α-ethyl-chenodeoxycholic acid], for which the EC50 in the test with FXR [3] (ref Pellicciari et al., 2002, read-out: EC50, FXR agonistic activity) was […]. In addition, the “fold more potent FXR agonistic activity than CDCA” value with FXR [3] (vs CDCA) is recorded as […].

Take `CC1(CO)CCCC2(C)C1CCC1(C)C2CC(O)C2(C)C3COC(=O)C3=CCC12` (stereo not drawn) [Compound 8]: the IC50 with FXR [4] (ref Nam et al., 2007) was 2.4 µM.

Consider `CC(C)=CCCC1=C[C@@H](C/C(C)=C/CC[C@@]2(C)C=Cc3cc(O)cc(C)c3O2)OC1=O` [Compound 10], for which the IC50 with FXR [4] (ref Choi et al., 2011) was 1.5 µM.

As for `COc1cc(/C=C2\C(=O)N(c3cccc([N+](=O)[O-])c3)N=C2c2ccccc2)ccc1O` [Compound 11], the IC50 in the test on FXR [5] (ref Huang et al., 2012) is 8.96 µM.

For `CCCCCCCc1c(\C(C)=C/C=C/C(C)=C/C(=O)O)cc(C(C)C)cc1C(C)C` [Compound 14], the IC50 with FXR [6] was 0.3 µM.

Take `CCCCC/C=C/C=C1/C=CC(=O)[C@@H]1C/C=C\CCCC(=O)O` [Compound 17]: in the test on FXR [5] (ref Xu et al., 2013), the IC50 was 7.25 µM.

Consider `CN(C)c1cc(Cl)c(C(=O)N(Cc2ccccc2)c2ccc(O)c(C(C)(C)C)c2)c(Cl)c1` [Compound 18, N-benzyl-N-(3-(tert-butyl)-4-hydroxyphenyl)-2,6-dichloro-4-(dimethylamino) benzamide], for which the IC50 with FXR [7] is 3.4 µM.

For `COC(=O)/C=C/c1cccc(N(Cc2ccc(-c3ccc(N(C)C)cc3)cc2)C(=O)C2CCCCC2)c1` [Fexeramine, Fexaramine], the EC50 in the test on FXR [3] (reported FXR modulators, Figure 1, reference not given, read-out: EC50, FXR agonists (Figure 1)) is 0.025 µM.
